# Target: BTK (Homo sapiens, UniProt Q06187)
# Test: biochemical
# Settings: read-out: BTK inhibition (%), 0.75 uM BTK, […] probe 3l, 15 min preincubation
# Chain of BTK (Q06187 402-655 limits assumed): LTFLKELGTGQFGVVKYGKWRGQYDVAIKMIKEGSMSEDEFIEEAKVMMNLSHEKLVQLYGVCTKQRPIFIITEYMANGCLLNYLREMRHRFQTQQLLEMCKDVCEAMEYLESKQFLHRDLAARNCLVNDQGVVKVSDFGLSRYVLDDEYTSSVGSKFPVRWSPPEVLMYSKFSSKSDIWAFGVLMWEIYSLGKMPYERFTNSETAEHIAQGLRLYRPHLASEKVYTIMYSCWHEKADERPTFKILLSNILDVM
row,Structure (SMILES),inhibition at 10 µM
1,COc1ccc(/C=C\c2cc(OC)c(OC)c(OC)c2)cc1OP(=O)(O)O [PCM-0215231],-27.2%
2,CC(C)OC(=O)OCOP(=O)(CO[C@H](C)Cn1cnc2c(N)ncnc21)OCOC(=O)OC(C)C [PCM-0214620],-14.8%
3,C[C@@H]1CC[C@@]2(OC1)O[C@H]1C[C@H]3[C@@H]4CC=C5C[C@@H](O[C@@H]6O[C@H](CO)[C@@H](O)[C@H](O)[C@H]6O[C@@H]6O[C@@H](C)[C@H](O)[C@@H](O)[C@H]6O)CC[C@]5(C)[C@H]4CC[C@]3(C)[C@@]1(O)[C@@H]2C [PCM-0216535],5.4%
4,O=C(O)CSc1nnc(Br)n1-c1ccc(C2CC2)c2ccccc12 [PCM-0214823],-21.8%
5,COc1cc(O)c(C(=O)/C=C/c2ccccc2)c(OC)c1 [PCM-0216315],6.9%
6,CC(C)(CO)[C@@H](O)C(=O)NCCC(=O)O [PCM-0214814],7%
7,Cc1cccc(-c2[nH]ncc2-c2ccc3ncccc3n2)n1 [PCM-0065277],13.9%
8,C=C(C)[C@@H]1CC[C@]2(C(=O)O)CC[C@]3(C)[C@H](CC[C@@H]4[C@@]5(C)CC[C@H](O)C(C)(C)[C@@H]5CC[C@]43C)[C@@H]12 [PCM-0214730],3.9%
9,COc1cc2nccc(Oc3ccc(NC(=O)Nc4ccc(F)cc4F)c(F)c3)c2cc1OC [PCM-0094996],4.8%
10,CCS(=O)(=O)CCn1c([N+](=O)[O-])cnc1C [PCM-0086486],-4.7%
11,C[C@@H]1O[C@@H](OC[C@H]2O[C@@H](Oc3cc(O)c4c(=O)cc(-c5ccc(O)cc5)oc4c3)[C@H](O[C@@H]3O[C@@H](C)[C@H](O)[C@@H](O)[C@H]3O)[C@@H](O)[C@@H]2O)[C@H](O)[C@H](O)[C@H]1O [PCM-0216389],13.9%
12,C=C(c1ccc(C(=O)O)cc1)c1cc2c(cc1C)C(C)(C)CCC2(C)C [PCM-0095260],14%
13,C[C@@H](OC[C@@]1(c2ccccc2)CC[C@]2(CCC(=O)N2)CN1)c1cc(C(F)(F)F)cc(C(F)(F)F)c1 [PCM-0216647],-48.6%
14,CC(N)C12CC3CC(CC(C3)C1)C2 (centres unmarked) [PCM-0012697],3.1%
15,COC(=O)c1cc(OC)c2c(c1-c1c(C(=O)OC)cc(OC)c3c1OCO3)OCO2 [PCM-0216065],2.8%
16,CN[C@@H]1[C@@H](O)[C@@H](O[C@@H]2[C@@H](O)[C@H](O[C@H]3O[C@H](CN)[C@@H](O)[C@H](O)[C@H]3O)[C@@H](N)C[C@H]2NC(=O)[C@@H](O)CN)OC[C@]1(C)O [PCM-0215401],4.3%
17,CCn1cc(NC(=S)Nc2cc(Cl)ccc2OC)c(C(N)=O)n1 [PCM-0215323],0%
18,CC1(C)[C@@H](O)CC[C@]2(C)[C@H]3C(=O)C=C4[C@@H]5C[C@@](C)(C(=O)O)CC[C@]5(C)CC[C@@]4(C)[C@]3(C)CC[C@@H]12 [PCM-0214675],4.7%
19,CC(C)C[C@H](CC(=O)NO)C(=O)N[C@@H](Cc1ccc2ccccc2c1)C(=O)N[C@@H](C)C(=O)NCCN [PCM-0215328],18.6%
20,CC1=C(C(=O)OC(C)C)C(c2cccc([N+](=O)[O-])c2)C(C(=O)OC2CN(C(c3ccccc3)c3ccccc3)C2)=C(N)N1 (centres unmarked) [PCM-0095544],70%
21,CC(C)(O/N=C(\C(=O)N[C@@H]1C(=O)N2C(C(=O)[O-])=C(C[n+]3ccccc3)CS[C@H]12)c1csc(N)n1)C(=O)O [PCM-0215253],6.8%
22,CC(C(=O)O)c1cccc(C(=O)c2ccccc2)c1 (centres unmarked) [PCM-0065500],-17.9%
23,CC12CC3CC(C)(C1)CC(N)(C3)C2 [PCM-0064948],7.8%

row,Structure (SMILES),inhibition at 10 µM
1,O=C(O)C(=O)c1cn(Cc2ccccc2)c2ccc(-c3ccc(OC(F)(F)F)cc3)cc12 [PCM-0215526],34%
2,C=CC(=O)Nc1cc(Nc2nccc(-c3cn(C)c4ccccc34)n2)c(OC)cc1N(C)CCN(C)C [PCM-0215305],80.7%
3,NCC(=O)Nc1ccc(-n2nc(C(F)(F)F)cc2-c2ccc3c(ccc4ccccc43)c2)cc1 [PCM-0094886],70.3%
4,Cc1c(C(=O)NN2CCCCC2)nn(-c2ccc(Cl)cc2Cl)c1-c1ccc(I)cc1 [PCM-0095445],34.2%
5,N#CC(c1ccc(Cl)cc1)c1c(Cl)cc(-n2ncc(=O)[nH]c2=O)cc1Cl (centres unmarked) [PCM-0086206],-0.8%
6,CN1CCN(c2c(F)cc3c(=O)c(C(=O)O)cn4c3c2OCN4C)CC1 [PCM-0095142],0%
7,CC[C@H]1OC(=O)[C@H](C)[C@@H](O[C@H]2C[C@@](C)(OC)[C@@H](O)[C@H](C)O2)[C@H](C)[C@@H](O[C@@H]2O[C@H](C)C[C@H](N(C)C)[C@H]2O)[C@](C)(O)C[C@@H](C)/C(=N\OCOCCOC)[C@H](C)[C@@H](O)[C@]1(C)O [PCM-0214736],3.9%
8,N#Cc1cnc(Nc2cc(NC[C@H]3CNCCO3)c(C(F)(F)F)cn2)cn1 [PCM-0214576],-0.7%
9,CC1=CC(=O)[C@H]2C[C@@H]1C2(C)C [PCM-0216612],7.7%
10,COCCc1ccc(OCC(O)CNC(C)C)cc1 (centres unmarked) [PCM-0065348],17%
11,CC(=O)Nc1ccccc1 [PCM-0090657],-14.5%
12,NCCCC[C@@H]1NC(=O)[C@@H](Cc2ccc(O)cc2)NC(=O)[C@H](CC(=O)O)NC(=O)CNC(=O)[C@H](CCCN=C(N)N)NC1=O [PCM-0215492],-10%
13,CO[C@@H](C(=O)N1Cc2[nH]nc(NC(=O)c3ccc(N4CCN(C)CC4)cc3)c2C1)c1ccccc1 [PCM-0094888],85.5%
14,CC(C)c1nc(CN(C)C(=O)N[C@H](C(=O)N[C@@H](Cc2ccccc2)C[C@H](O)[C@H](Cc2ccccc2)NC(=O)OCc2cncs2)C(C)C)cs1 [PCM-0214603],-19.5%
15,CCCCCCCCCC(C)=O [PCM-0215930],10.1%
16,Cc1[nH]c2ccccc2c1C1=C(NCCc2ccc(F)cc2)C(=O)N(C)C1=O [PCM-0215349],51.7%
17,CC(C(=O)O)c1ccc2c(c1)CC(=O)c1ccccc1S2 (centres unmarked) [PCM-0095453],-15.9%
18,CN1CCN(c2ccc(C(=O)Nc3n[nH]c4ccc(Cc5cc(F)cc(F)c5)cc34)c(NC3CCOCC3)c2)CC1 [PCM-0215551],103%
19,CCN1CCN(Cc2ccc(C(=O)Nc3ccc(C)c(Oc4ccc5c(c4)CC(=O)N5)c3)cc2C(F)(F)F)CC1 [PCM-0213332],20.7%
20,C[C@@](Cc1ccc(O)c(O)c1)(NN)C(=O)O [PCM-0065259],-14.8%
21,CC(=O)O[C@H]1CC[C@H]2[C@@H]3CCc4cc(O)ccc4[C@H]3CC[C@]12C [PCM-0216021],3.1%
22,COc1cc(C[C@@H](COC2OC(CO)C(O)C(O)C2O)[C@@H](COC2OC(CO)C(O)C(O)C2O)Cc2ccc(O)c(OC)c2)ccc1O (some centres unmarked) [PCM-0214976],2.3%
23,CC(=O)c1ccccc1O [PCM-0216621],0.8%

row,Structure (SMILES),inhibition at 10 µM
1,O=C(Nc1cccnc1)N1CCC(Cc2cccc(Oc3ccc(C(F)(F)F)cn3)c2)CC1 [PCM-0095330],-4.8%
2,OC[C@H]1O[C@@H](O[C@H]2[C@H](O)[C@@H](O)C(O)O[C@@H]2CO)[C@H](O)[C@@H](O)[C@@H]1O (some centres unmarked) [PCM-0215689],-3.4%
3,CN1CCC(=C2c3ccccc3CCn3c(C=O)cnc32)CC1 [PCM-0214821],2.1%
4,C[C@]12C=CC(=O)C=C1CC[C@@H]1[C@@H]2[C@@H](O)C[C@@]2(C)[C@H]1CC[C@]2(O)C(=O)CO [PCM-0085835],-7%
5,Cc1cnc(NC(=O)Nc2cc(Br)c(C)cc2OC[C@@H]2CNCCO2)cn1 [PCM-0095485],7.6%
6,COC(=O)N[C@H](C(=O)N1CCC[C@H]1c1ncc(-c2ccc3c(c2)O[C@@H](c2ccccc2)n2c-3cc3cc(-c4cnc([C@@H]5CCCN5C(=O)[C@@H](NC(=O)OC)C(C)C)[nH]4)ccc32)[nH]1)C(C)C [PCM-0216642],52.5%
7,Cc1cc(C(=O)NOCCO)c(Nc2ccc(I)cc2F)n(C)c1=O [PCM-0095312],2.1%
8,Cn1c(=O)cc(C(=O)Nc2ccc3c(c2)OCCO3)c2ccccc21 [PCM-0215702],-3.9%
9,O=C(O)Cc1cccc(OCCCN(Cc2cccc(C(F)(F)F)c2Cl)CC(c2ccccc2)c2ccccc2)c1 [PCM-0095493],23.4%
10,CO[C@@H]1[C@@H](OC)[C@H](C)[C@@](O)(CC(=O)O)O[C@H]1[C@H](C)[C@H]1O[C@@]2(CC[C@@](C)([C@H]3CC[C@@](C)([C@@H]4O[C@@H]([C@H]5O[C@](C)(O)[C@H](C)C[C@@H]5C)C[C@@H]4O[C@@H]4C[C@H](OC)[C@@H](OC)[C@H](C)O4)O3)O2)C[C@H](O)[C@H]1C [PCM-0216004],-20.8%
11,NC(=O)N1c2ccccc2C=Cc2ccccc21 [PCM-0064618],9.3%
12,CCc1cc(/C(C)=N/OCc2ccc(C3CCCCC3)c(C(F)(F)F)c2)ccc1CN1CC(C(=O)O)C1 [PCM-0215423],-62.8%
13,O=C(Nc1ccc([N+](=O)[O-])cc1)Nc1ccc([N+](=O)[O-])cc1 [PCM-0215156],-14%
14,COc1cc2c(=O)c(-c3ccc(O)cc3)coc2cc1O[C@@H]1O[C@H](CO)[C@@H](O)[C@H](O)[C@H]1O [PCM-0214955],15.6%
15,Cc1nc(C#Cc2ccnc(Cl)c2)c(C)n1-c1ccc(OC(F)(F)F)cc1 [PCM-0095504],-55.3%
16,COC[C@H](NC(=O)c1cnc(C)s1)C(=O)N[C@@H](COC)C(=O)N[C@@H](Cc1ccccc1)C(=O)[C@@]1(C)CO1 [PCM-0095574],-4.6%
17,COc1ccc2cc3[n+](cc2c1O)CCc1cc2c(cc1-3)OCO2 [PCM-0216489],97.3%
18,CC(C)(C)C(O)/C=C/c1ccc2c(c1)OCO2 (centres unmarked) [PCM-0216138],-4.6%
19,O=C(Cc1cccc(OC(F)(F)F)c1)Nc1ccc(CCCCc2nnc(NC(=O)Cc3ccccn3)s2)nn1 [PCM-0215461],0%
20,CCN(CC)c1ccc(/C=N/NC(=O)c2ccc(O)cc2)cc1 [PCM-0216144],0%
21,Cc1cc(Nc2cc(N)ncn2)c(=O)n2c1C(=O)NC21CCCCC1 [PCM-0203357],6.9%
22,NCCOc1ccc(Cl)cc1C(=O)Nc1ccc([N+](=O)[O-])cc1Cl [PCM-0215860],7.7%
